From patent US20260151453A1, “COMBINATION THERAPY FOR THE TREATMENT OF CANCER” (PEPTOMYC, S.L., priority 2022, published 2026)

Columns and labels:
MIA-PACA-2 cells = experiment: Viability of PDAC MIA-PACA-2 cells treated alone and in combination for 5 days; synergy score by SynergyFinder.org; assay type: cell-based; settings: MIA-PACA-2, single agent, 5 days (FIG. 2)
From the text: Synergy scores can be interpreted as the average excess response due to drug interactions. Synergy scores close to 0 give limited confidence in synergy or antagonism. So, when the synergy scores are: less than −10, the interaction between two drugs is likely to be antagonistic. From −10 to 10, the interaction between two drugs is likely to be additive. Greater than 10, the interaction between two drugs is likely to be synergistic.
Pancreatic ductal adenocarcinoma (PDAC) MIA-PACA-2 cells were treated with increasing concentrations of Olaparib and the Omomyc peptide sequence SEQ ID NO: 4 alone and in combination, for 5 days.
Then synergy score was calculated by SynergyFinder.org after having carried out 3 biological replicates as described above.

[1] = system: SUM149 cell-derived xenograft (CDX); experiment: SUM149 cell-derived xenograft (CDX) model, orthotopic in mammary fat-pad, tumour growth; assay type: in vivo; settings: SUM149 CDX mice, 4 weeks; Omomyc 50 mg/kg intravenous once a week; Olaparib 50 mg/kg oral gavage 6 times a week; preliminary
Method: SUM149 cell-derived xenograft (CDX) model mice were used for in vivo studies. Each mouse was inoculated orthotopically in the mammary fat-pad with 5 million cells. As the tumours reached 100 mm^3, mice were randomised in 4 treatment groups. Specifically, mice were treated with Omomyc once a week (50 mg/kg, intravenous), with Olaparib 6 times a week (50 mg/kg oral gavage), with the combination of the 2 drugs (combo) or with vehicle alone for 4 weeks. Relative volume was calculated as a percentage of tumour growth from the day of randomization and beginning of treatments. At end-point the average of the groups were respectively: vehicle 901.8%, Omomyc 663.6%, Olaparib 623.6%, and combination 335.8%.

## O=C(c1cc(Cc2n[nH]c(=O)c3ccccc23)ccc1F)N1CCN(C(=O)C2CC2)CC1 [Olaparib, reference compound]
MIA-PACA-2 cells
  sensitivity of the cell line to the single agent (viability): particularly resistant
[1]
  Relative volume, percentage of tumour growth from the day of randomization (group average at end-point): 623.6%
